# Results from patent publication US10065951B2, “Small molecule transcription modulators of bromodomains” (Icahn School of Medicine at Mount Sinai, priority 2014, dated 2018).
# Columns and labels:
# MOG-induced EAE = MOG-induced EAE in mice, 7-day treatment started after onset of clinical symptoms; type: in vivo, mouse; conditions: treatment from day 18 for 7 days, mice with score 2.5-3.0; after 3-4 days of treatment
# Procedure: FIG. 14 illustrates seven-day 4c treatment accelerates recovery from MOG-induced EAE even if started AFTER the onset of clinical symptoms.
# This study was conducted to determine whether the effectiveness of 4c can be observed in animals even if started once the disease has progressed to peak clinical symptoms. For this reason, MOG-dependent EAE in mice was induced and the animals scored daily. On day 18 post-immunization mice with a score of 2.5-3.0 (paralysis of one leg and weakness of the other to paralysis of both hindlimbs) were selected and divided into two groups receiving either 4c or vehicle treatment for 7 days.
# [1] = system: rat primary oligodendrocyte progenitors; experiment: Oligodendrocyte progenitor differentiation (immunocytochemistry NG2/O4/MBP, qRT-PCR MOG); type: cell-based; conditions: 10 nM
# Procedure: Early and differentiating progenitors were identified by positive immunoreactivity for the marker NG2 (dark) or O4 (light), respectively. FIG. 6B illustrates the number of NG2+, O4+ and NG2+/O4+ cells quantified in three independent experiments and the total number of oligodendrocyte lineage cells (mean±SD). FIG. 6C illustrates the results of rat primary cells cultured in medium containing 4c (10 nM) for 4 days and then labeled with O4 (light) and with the differentiation marker MBP (dark). FIG. 6D is a bar graph showing the number of MBP+ cells quantified in three independent experiments (mean±SD). FIG. 6E illustrates the qRT-PCR of the transcript levels of the late differentiation marker MOG in treated cells.
# Cortex from rat p1 pups were dissected in L-15 medium and collected in NM10 medium (DMEM+10% FBS+2 mM glutamine+1 mM sodium pyruvate+100 U/ml penicillin+100 μg/ml streptomycin). The dissociated cells were plated into 75 cm^2 flasks (1.5 brain per flask) and cultured at 37° C. supplied with 5% CO2 for 7 days with the changing of fresh NM10 medium every other day. At day 8 the flasks were shaken for 16-18 h at 200 rpm and 37° C. and the medium containing the ‘shaken-off’ cells were collected. Oligodendrocyte progenitors (OPCs) were then isolated from the cell suspension by immunoselection using A2B5 antibodies followed by incubation with anti-immunoglobulin magnetic microbeads (50 nm in size and biodegradable) and separation using a high-gradient magnetic field generated by the permanent magnet in the MACS Separator unit (Miltenyi Biotec). The purified OPCs were plated in NM10 medium onto Lab Tek®II 8-well chamber slides (Nalge Nunc Inc.) at a density of 2×10^4 per well for immunocytochemistry, or poly-D-lysine-coated 6-well plates at a density of 2×10^5 per well for RNA isolation. After incubated for 8-16 hr, the medium was changed to ODM (DMEM, 2 mM L-glutamine, 1 mM sodium pyruvate, 10 ng/ml biotin, 100 μg/ml apotransferrin, 100 μM putrescine, 20 nM progesterone, 30 nM sodium selenite, 5 μg/ml insulin, 100 U/ml penicillin, 100 μg/ml streptomycin) supplemented with bFGF (20 ng/ml) and platelet derived growth factor (PDGF; 10 ng/ml), and cultured for additional one day as previously described (He, Y. et al., Neuron 55, 217-30 (2007)). Oligodendrocyte differentiation was induced by culturing the cells in the same medium devoid of mitogens (ODM) with or without compounds at indicated concentrations. […]
# Images were captured at 20× objective using LSM 710 Meta confocal laser scanning microscope (Carl Zeiss MicroImaging, Inc.). For the quantification of the cells at different stages, three fields of each well and three wells of each condition were analyzed. […]
structure (smiles),measurement,setting,value
"CC(=O)NCCCCn1c2c(c3ccccc31)C(=O)NCC2 [4c, 2,3,4,5-tetrahydro-5-(4′-acetamidobutyl)-1H-pyrido-[4,3-b]indol-1-one]",recovery when treatment started at peak clinical symptoms,MOG-induced EAE,showed signs of recovery
same,percentage of MBP+ cells,[1]; 4-day treatment,increased percentage of MBP+ cells
same,transcript levels of late-differentiation marker MOG,"[1]; 4-day treatment, qRT-PCR",increased transcript levels
same,NG2+ progenitors,[1]; two-day treatment,concomitant decrease of NG2+ progenitors
same,percentage of O4+ cells,[1]; two-day treatment,increased percentage of O4+ cells
